US7462716B2, “Statin derivatives” (Nicox S.A., priority 2003, dated 2008)
Like-named read-outs stand apart in the source and are kept apart here. Marks after values point to notes of the source that are not given here. Values belong to the compound of their own block, whether it stands above or below them.

Tests used:
[1] = tested on: isolated rabbit thoracic aorta preparations; experiment: Vascular tone: relaxation of noradrenaline-precontracted isolated aortic rings; conditions: Oryctolagus cuniculus; rabbit thoracic aorta rings contracted with noradrenaline 1 μM, functional endothelium; ± sem; read-out: IC50 (concentration giving 50% reversal of NA contraction)
Method: The ability of statin nitroderivatives to induce vasorelaxation in comparison to native statins, was tested in vitro in isolated rabbit thoracic aorta preparations (Wanstall J. C. et al., Br. J. Pharmacol., 134:463-472, 2001). Male New Zealand rabbits were anaesthetized with thiopental-Na (50 mg/kg, iv), sacrificed by exsanguinations and then the thorax was opened and the aorta dissected. Single ring preparations (4 mm in length) of thoracic aorta were set up in physiological salt solution (PSS) at 37° C. in small organ chambers (5 ml). The composition of PSS was (mM): NaCl 130, NaHCO3 14.9, KH2PO4 1.2, MgSO4 1.2, HEPES 10, CaCl2, ascorbic acid […] and glucose 1.1 (95% O2/5% CO2; pH 7.4). Each ring was mounted under 2 g passive tension in 5 ml organ bath. Isometric tension was recorded with a Grass transducer (Grass FT03) attached to a BIOPAC MP150 System. Preparations were allowed to equilibrate for 1 h, then contracted submaximally with noradrenaline (NA, 1 μM) and, when the contraction was stable, acetylcholine (ACh, 10 μM) was added. A relaxant response to ACh indicated the presence of a functional endothelium. When a stable precontraction was reached, a cumulative concentration-response curve to either of the vasorelaxant agents was obtained in the presence of a functional endothelium. Time intervals between different concentrations were based on the time needed to reach a full response. Moreover, the effect of the soluble guanylyl cyclase inhibitor ODQ (1-H-(1,2,4)-oxadiazol(4,3-a)quinoxalin-1-one) on the dilator responses elicited by the compounds was examined preincubating the aortic rings with ODQ (10 μM) for 20 min. Responses to vasorelaxing agents were measured from the plateau of NA contraction. The IC50 (concentration giving 50% reversal of NA contraction) was interpolated from the plots of relaxant-response vs log molar concentration of tested compound.
During the experimental period, the plateau obtained with NA was stable without significant spontaneous loss of contraction in the aortic rings.
As shown in the following Table 1, the nitroderivatives of the invention were able to induce relaxation in a concentration-dependent manner. Furthermore, in experiments performed in presence of ODQ (10 μM), the vasorelaxant responses to all the tested drugs were inhibited.
IC50 is the concentration which inhibits 50% of the response. Effects of Nitrostatin Derivatives on Inflammatory Pathways In Vitro

iNOS = experiment: Western blot of iNOS protein in LPS-stimulated RAW264.7 cells; type: cell-based
Method: (§1) The experiments were performed using RAW264.7 monocyte macrophage cell line. […] At the end of the incubation, the cells were harvested in lysis buffer and the protein content was measured. Western Blot of inducible iNOS and COX2 proteins (representatives of an ongoing inflammatory process) was performed. The obtained results reported in Table 2 are expressed as % reduction of optical density of each treatment vs. LPS-treated samples.

COX2 = experiment: Western blot of COX2 protein in LPS-stimulated RAW264.7 cells; type: cell-based
Method: as §1

murine hindlimb ischemia = experiment: Murine hindlimb ischemia model (capillary density, clinical outcome); type: in vivo, CD1 male mice
Method: Angiogenesis is a primary response to local tissue hypoxia and is likely involved in the restoration of blood flow in ischemic diseases such as acute coronary syndromes and occlusive peripheral vascular disease. […] After 3 days, mice were anaesthetized and left hindlimb ischemia was induced by electro-coagulation of the upper part of femoral artery. Treatment was continued for the following 2 weeks after surgery. Systolic blood pressure was measured by tail cuff technique at 7 and 14 days. The clinical outcome at 14 days was determined by counting the number of necrotic or lost nails in the ischemic foot as well as the number of auto-amputation events. At 14 days from ischemia induction, hindlimbs of anaesthetized mice were perfusion-fixed, both adductors were coded and histologically processed. Capillary and arteriolar densities (ncap/mm^2 and nart/mm^2) were determined.

leukocyte adhesion = experiment: Ex vivo leukocyte adhesion to thrombin-stimulated arterial segments of dosed ApoE knockout mice; type: in vivo; conditions: ApoE K/O mice, pravastatin 40 mg/kg po or equimolar dose daily for 5 days
Method: The interaction between leukocytes and the vascular endothelium is a crucial inflammatory step in the atherogenic process.
Leukocytes were isolated from spleen, centrifuged, RBCs lysed with water. Arterial segments prepared—aortic & thoracic regions opened longitudinally and pinned out luminal side up. Radiolabelled leukocytes (^51Cr-leukocytes) are incubated with thrombin-stimulated (10 UmL−1 for 10 min.) segments for 30 min. Segments are washed with medium and adhesion measured by gamma counter.

[2] = tested on: U46619-induced pulmonary thromboembolism; experiment: Protection from U46619-induced pulmonary thromboembolism; type: in vivo, CD-1 mice; conditions: mice, U46619 0.2 mg/kg iv
Method: 1 (equimolar doses) or vehicle. 1-3 hrs later the animals were injected into a tail vein with U46619 (0.2 mg/kg), a stable TxA2 analog. As previously described (Momi et al., Eur. J. Pharmacol. 397:177-185, 2000), this dose of the agonist caused 80 to 90% mortality within 3 min. in the control group. In each experimental session at least six animals per treatment group were tested; control groups were run at the beginning and at the end of every experimental session. Protection against agonist-induced thromboembolism was expressed as (1-Tdrug/Tsaline)×100, were Tdrug is the mortality rate in drug-treated mice, and Tsaline is the number of non surviving control animals which received […] only.
The results were expressed as percentage of protection from U46619-induced pulmonary thromboembolism as compared to the control group.

human platelets = experiment: U46619-induced platelet aggregation in vitro; type: cell-based
Method: Platelets are prominent components of the thrombi.
Compounds were incubated at 37° C. for 2 min before adding U46619, an aggregating agent, TxA2 analog. Aggregation was followed for 5 min and the maximal amplitude (cm) was measured. DMSO (0.05%) was used as vehicle. Compounds were tested at concentrations ranging from 50 to 200 μM.

Tissue factor (TF) = experiment: Tissue factor expression in LPS-stimulated blood mononuclear cells; type: cell-based; conditions: 50 μM; human MNC, LPS 1 μg/ml, 3 h; mean ± SEM
Method: Tissue factor (TF) is a major regulator of homeostasis and thrombosis. […] MNC were obtained from fresh blood by density gradient (Ficoll-Hypaque) centrifugation and resuspended in serum-free RPMI medium at the concentration of 2−3×10^6/ml. […] After incubation for 3 h at 37° C., TF expression in MNC was assessed by 1) functional assay (Semeraro et al., 1983. Immunology; 50: 529-35) on intact cells; 2) immunological assay (Imubind, Instrumentation Laboratory, Milan) on Triton X-100 cell extracts; 3) RT-PCR (Rossiello et al. Thromb Haemost 2000; 84:453-59).

[3] = 100 μM, RAW264.7, LPS 1 μg/ml 8 h
[4] = mice, 14 days after ischemia, in chow pravastatin 40 mg/kg or nitroderivative 48 mg/kg
[5] = 10 μM, RAW264.7, LPS 1 μg/ml 16 h, negative = increase vs LPS

SMILES: CC[C@H](C)C(=O)O[C@H]1C[C@H](O)C=C2C=C[C@H](C)[C@H](CCC(O)C[C@H](O)CC(=O)OCCCCO[N+](=O)[O-])[C@H]21 (relative stereo) [Compound of EX. 1, [1S-[1α(βS*,δS*),2α,6α,8β-(R*),8aα]]-1,2,6,7,8,8a-hexahydro-β,δ,6-trihydroxy-2-methyl-8-(2-methyl-1-oxobutoxy)-1-naphthaleneheptanoic acid 4-(nitrooxy)butyl ester]
- IC50 [1]: 2.4 ± 0.6 µM
- iNOS (% reduction vs LPS) (iNOS; [3]): 55.2 ± 11.8%
- COX2 (% reduction vs LPS) (COX2; [3]): 74.9 ± 4.4%
- clinical outcome in mice with hindlimb ischemia (murine hindlimb ischemia; 14 days, necrotic or lost nails, auto-amputation events): ameliorates clinical outcome
- N capillaries/mm^2 in contralateral adductor muscle (murine hindlimb ischemia; [4]): 660 ± 40 N capillaries/mm^2
- N capillaries/mm^2 in ischemic adductor muscle (murine hindlimb ischemia; [4]): 1116 ± 53^§§**^++ N capillaries/mm^2
- Leukocyte adhesion (%) (thoracic aorta) (leukocyte adhesion): 9.3 ± 3 %
- Antithrombotic activity (%) 1-h before challenge ([2]; 12 mg/kg ip): 30* %
- Antithrombotic activity (%) 3-h before challenge ([2]; 12 mg/kg ip): 40* %
- Antithrombotic activity (%) 1-h before challenge ([2]; 24 mg/kg ip): 40*+ %
- Antithrombotic activity (%) 3-h before challenge ([2]; 24 mg/kg ip): 55*+ %
- IC50 (human platelets; Platelet, human gel filtered platelets, read-out: Platelet aggregation (GFP) IC50): 101 ± 10 µM
- IC50 (human platelets; human platelet rich plasma, read-out: Platelet aggregation (PRP) IC50): 74 ± 7 µM
- TF in LPS-stimulated MNC: Activity (Tissue factor (TF)): 16 ± 4.9 AU/10^6 cells
- TF in LPS-stimulated MNC: Antigen (Tissue factor (TF)): 0.65 ± 0.11 ng/mg protein

- IC50 [1]: 13.4 ± 3.5 µM
SMILES: CC(C)n1c(/C=C/[C@@H](O)C[C@@H](O)CC(=O)OCCCCO[N+](=O)[O-])c(-c2ccc(F)cc2)c2ccccc21 (relative stereo) [Compound of EX. 3, [R*,S*-(E)]-7-[3-(4-fluorophenyl)-1-(1-methylethyl)-1H-indol-2-yl]-3,5-dihydroxy-6-heptanoic acid 4-(nitrooxy)butyl ester]
- iNOS (% reduction vs LPS) (iNOS; [5]): 44.8 ± 11.9%
- COX2 (% reduction vs LPS) (COX2; [5]): 53.9 ± 6.1%

- IC50 [1]: 8.7 ± 3.3 µM
SMILES: CC(C)n1c(/C=C/[C@@H](O)C[C@@H](O)CC(=O)OCc2ccc(CO[N+](=O)[O-])cc2)c(-c2ccc(F)cc2)c2ccccc21 (relative stereo) [Compound of EX. 4, [R*,S*-(E)]-7-[3-(4-fluorophenyl)-1-(1-methylethyl)-1H-indol-2-yl]-3,5-dihydroxy-6-heptanoic acid 4-(nitrooxymethyl)benzyl ester]
- iNOS (% reduction vs LPS) (iNOS; [5]): 22.4 ± 9.6%
- COX2 (% reduction vs LPS) (COX2; [5]): 19.4 ± 6.5%

SMILES: CC(C)c1c(C(=O)Nc2ccccc2)c(-c2ccccc2)c(-c2ccc(F)cc2)n1CC[C@@H](O)C[C@@H](O)CC(=O)O [Atorvastatin, atorvastatin, reference compound]
- iNOS (% reduction vs LPS) (iNOS; [5]): 20 ± 14%

SMILES: CC(C)c1c(C(=O)Nc2ccccc2)c(-c2ccccc2)c(-c2ccc(F)cc2)n1CC[C@@H](O)C[C@@H](O)CC(=O)OCCCCO[N+](=O)[O-] [Compound of EX. 7, (βR,δR)-2(4-fluorophenyl)-β,δ-dihydroxy-5-(1-methylethyl)-3-phenyl-4-[(phenylamino)carbon-yl]-1H-pyrrole-1-heptanoic acid 4-(nitrooxy)butyl ester]
- iNOS (% reduction vs LPS) (iNOS; [5]): 45 ± 9%

- IC50 [1]: > 30 µM
SMILES: CC(C)n1c(/C=C/C(O)CC(O)CC(=O)O)c(-c2ccc(F)cc2)c2ccccc21 (stereo not shown) [Fluvastatin, fluvastatin, reference compound]
- iNOS (% reduction vs LPS) (iNOS; [5]): −14.8 ± 5.9%
- COX2 (% reduction vs LPS) (COX2; [5]): −2.8 ± 3.7%

SMILES: CC[C@H](C)C(=O)O[C@H]1C[C@H](O)C=C2C=C[C@H](C)[C@H](CC[C@@H](O)C[C@@H](O)CC(=O)O)[C@H]21 [Pravastatin, pravastatin, reference compound]
- IC50 [1]: > 30 µM
- iNOS (% reduction vs LPS) (iNOS; [3]): 4.7 ± 3.6%
- COX2 (% reduction vs LPS) (COX2; [3]): 26.9 ± 7.9%
- N capillaries/mm^2 in contralateral adductor muscle (murine hindlimb ischemia; [4]): 736 ± 40 N capillaries/mm^2
- Leukocyte adhesion (%) (thoracic aorta) (leukocyte adhesion): 23.0 ± 6%
- Antithrombotic activity (%) 1-h before challenge ([2]; 10 mg/kg ip): 15%
- Antithrombotic activity (%) 3-h before challenge ([2]; 10 mg/kg ip): 10%
- Antithrombotic activity (%) 1-h before challenge ([2]; 20 mg/kg ip): 25%
- Antithrombotic activity (%) 3-h before challenge ([2]; 20 mg/kg ip): 20%
- TF in LPS-stimulated MNC: Activity (Tissue factor (TF)): 189 ± 37.6 AU/10^6 cells
- TF in LPS-stimulated MNC: Antigen (Tissue factor (TF)): 4.4 ± 1.3 ng/mg protein
